Values joined by “and” are separate entries in the source; they are usually repeats but may differ in a detail not shown here. Equal values may be shown once. Read-outs that look alike come from different tables or passages of the source.
What was measured:
[1] = target: T1, VCB complex (Homo sapiens, UniProt P40337); assay: SPR binary binding to immobilised VCB complex
T1 construct: His6 (TEV site) (N, cleaved yes); made in house
Experimental: (§1) SMARCA4^BD was provided by the Structural Genomics Consortium (SGC), Toronto[32] and SMARCA2^BD and PRM1^BD5 were synthesised by GeneArt then subcloned into pDEST15 vectors (Invitrogen). The VCB complex was expressed and purified as described previously, with the modification that 0.3 mM IPTG was used for induction of expression. […] Both were stored in 20 mM 4-(2-hydroxyethyl)−1-piperazineethanesulfonic acid (HEPES), 150 mM sodium chloride and 1 mM tris(2-carboxyethyl)phosphine (TCEP) pH 7.5. SMARCA2^BD, SMARCA4^BD and PBRM1^BD5 were expressed in Escherichia coli BL21(DE3) as N-terminal GST fusion proteins with a TEV protease cleavage site. Expression and purification of these proteins has been described previously[32],[33]. Starter cultures were grown overnight at 37 °C in 10 mL of Luria-Bertani (LB) medium with ampicillin (100 μg/mL). The starter cultures were diluted (1:100) in Terrific Broth (TB) medium with ampicillin (100 μg/mL) and grown in a shaking incubator at 37 °C to an optical density (OD600) ~1 before the temperature was lowered for induction (to 23 °C for SMARCA2^BD or 18 °C for SMARCA4^BD and PRRM1^BD5). […] Cells were harvested by centrifugation and stored at −80 °C prior to purification. […] The Lysis buffers were as follows: for SMARCA2^BD: 50 mM HEPES, 500 mM sodium chloride, 5% glycerol, 5 mM dithiothreitol (DTT); for SMARCA4^BD: 25 mM HEPES, 0.3 M sodium chloride, 5% glycerol, 10 mM DTT, pH 7.5; for PBRM1^BD5: 25 mM HEPES, 300 mM sodium chloride, 5% glycerol, 10 mM DTT, pH 7.8; in each case supplemented with complete protease inhibitors (Roche). Affinity purification was performed using Glutathione Sepharose 4B (GE Healthcare) in batch mode or on-column. […] For SMARCA2^BD, prior to TEV protease cleavage the eluted GST-tagged BD was first dialysed into desalting buffer (20 mM HEPES, 250 mM sodium chloride, pH 7.0 + 0.5% glycerol). Where TEV cleavage was performed in solution, a second affinity (GST-trap) column purification step was carried out to remove the GST-tag and uncleaved GST-tagged protein. Proteins were further purified by SEC (HiLoad Superdex-75, 16/600) (GE Healthcare) and stored in Storage buffer (for SMARCA2^BD: 20 mM HEPES, 150 mM sodium chloride, pH 7.5; for SMARCA4^BD: 10 mM HEPES, 0.5 M NaCl, 5% glycerol, pH 7.5; for PBRM1^BD5: 20 mM HEPES, 300 mM NaCl, 5 mM DTT, pH 7.8). For AlphaScreen assays, eluted GST-tagged BDs were purified directly by SEC in the respective storage buffers without TEV cleavage. All chromatography purification steps were performed either at room temperature or 4 °C using an ÄKTA FPLC purification system (GE Healthcare) or a plastic Econo-Pac column (Bio-Rad).
(§2) SPR data were acquired on Biacore 8K or T200 instruments (Cytiva). Target proteins were immobilised at 25 °C on CM5 chips by amine coupling (EDC/NHS, Cytiva) in HBS-P+ running buffer (pH 7.4), containing 2 mM TCEP. […] The reference surface was subsequently deactivated using 1 M ethanolamine. […] Biotinylated VCB was prepared as previously described[27]: in brief, the complex was mixed 1:1 with EZ-Link NHS–PEG4–biotin (Thermo Scientific) and incubated at room temperature for 1 h. Unreacted NHS-biotin was removed using a PD-10 desalting column (Cytiva) into 20 mM HEPES, pH 7.5, 150 mM sodium chloride and 1 mM DTT. The reference surface was generated by deactivating the EDC/NHS-treated surface with 1 M ethanolamine. All interaction experiments were done at 6 °C in running buffer (20 mM TRIS, pH 8.3, 150 mM potassium chloride, 2 mM magnesium chloride, 2 mM TCEP, 0.005% TWEEN 20, 1% dimethyl sulfoxide). For ternary complex measurements, a sensor chip surface with VCB immobilised was used (preparation as described above). Experiments were run in dual-inject mode with 10 µM SMARCA present during the injection and dissociation phase. Sensorgrams from reference surfaces and blank injections were subtracted from the raw data prior to data analysis using Biacore Insight software.

[2] = Microsomal stability; type: in vitro ADME; details: for Mic. Stab. Mouse / Mic. Stab. Mouse QH: mouse liver microsomes; for Mic. Stab. Rat / Mic. Stab. Rat QH: rat liver microsomes
Experimental: […] Reactions were terminated by addition of acetonitrile and precipitates separated by centrifugation. Compound concentrations in supernatants were measured by HPLC-MS/MS and clearance was calculated from compound half-lives using the well-stirred liver model.

[3] = tested on: VCB: PROTAC: SMARCA2^BD ternary complex; assay: TR-FRET ternary complex affinity and cooperativity, SMARCA2; type: binding, human; details: ratio TR-FRET EC50 / TR-FRET EC50 +VCB measured in the same run, SMARCA2BD
[4] = target: T2, SMARCA2^BD (Homo sapiens, UniProt P51531); assay: SPR binding to immobilised SMARCA2 bromodomain
T2 construct: P51531-2, residues 1373-1493 with additional N-terminal SM residues; GST (TEV site) (N, cleaved yes); made in house; host or cells: Escherichia coli BL21(DE3)
T2 sequence (P51531 1373-1493 isoform P51531-2): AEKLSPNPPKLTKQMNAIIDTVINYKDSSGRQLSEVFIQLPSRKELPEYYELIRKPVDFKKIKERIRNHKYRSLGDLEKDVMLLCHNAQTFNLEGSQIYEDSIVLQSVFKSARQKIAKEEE
Experimental: as §1, §2

[5] = binary binding to VCB, mean ± SD
[6] = SPR, SMARCA2BD, mean ± SD, read-out: SMARCA2 KD
[7] = SPR, individual replicates, read-out: SMARCA2 KD

T1 sequence (P40337 54-213): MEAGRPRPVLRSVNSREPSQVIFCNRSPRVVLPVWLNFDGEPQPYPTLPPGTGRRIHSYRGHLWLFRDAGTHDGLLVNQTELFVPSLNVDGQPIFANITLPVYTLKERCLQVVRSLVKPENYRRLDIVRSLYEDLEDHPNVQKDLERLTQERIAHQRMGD
T1 sequence (Q15369 17-112 partner limits assumed): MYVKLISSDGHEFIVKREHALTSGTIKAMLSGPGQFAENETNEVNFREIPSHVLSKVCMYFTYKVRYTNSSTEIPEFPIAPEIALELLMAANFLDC
T1 sequence (Q15370 1-104 partner limits assumed): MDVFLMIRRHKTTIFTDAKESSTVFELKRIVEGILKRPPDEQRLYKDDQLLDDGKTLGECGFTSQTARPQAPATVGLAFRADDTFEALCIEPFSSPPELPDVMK

Structure (SMILES)	Kd [1, 5]	Mic. Stab. Human ([2]; human liver microsomes)	Mic. Stab. Human QH ([2]; human liver microsomes)	Mic. Stab. Mouse [2]	Mic. Stab. Mouse QH [2]	Mic. Stab. Rat [2]	Mic. Stab. Rat QH [2]	cooperativity α (SMARCA2BD) [3]	Kd [4, 6]	Kd [4, 7]	Kd ([4]; read-out: SMARCA2^BD SPR KD)	koff [4]	kon [4]	Kd ([1]; binary, individual replicates)	microsomal stability [2]	Mic. Stab. Human degradation without NADPH ([2]; human liver microsomes, without NADPH)
Cc1ncsc1-c1ccc(C(CCC(C)CCN2CCC(c3ccc4c(c3)n(C3CCCC3)c3nc(=O)c5c(Br)cccc5n43)CC2)NC(=O)C2CC(O)CN2C(=O)C(NC(=O)C2(F)CC2)C(C)(C)C)cc1 (stereo not drawn) [ACBI2]	28 ± 35 nM	<24 % QH	<24.400 <24.400 <24.400 <24.400%	<24 % QH	<24.200 <24.200 <24.200 <24.200%	<23 % QH	<23.100 <23.100 <23.100 <23.100%	4.6 ± 2.2	208 ± 39 nM	250 nM and 202 nM and 173 nM	–	–	–	–	–	–
O=c1nc2n(C3CCCC3)c3ccccc3n2c2cccc(Br)c12 [compound 1]	–	–	87.940% and 88.090%	–	86.850%	–	87.000% and 86.360%	–	1060 ± 258 nM	1050 nM and 804 nM and 1320 nM	–	–	–	–	–	–
Nc1cccc2c1c(=O)nc1n(C3CCCC3)c3ccccc3n21 [compound 2]	–	–	91.040%	–	–	–	88.170%	–	1160 ± 421 nM	826 nM and 632 nM and 916 nM and 1490 nM and 1420 nM and 1670 nM	1160 nM	–	–	–	–	–
CN1CCC(c2ccc3c(c2)n(C2CCCC2)c2nc(=O)c4c(Br)cccc4n32)CC1 [compound 3]	–	<24 % QH	<24.400%	43 ± 10 % QH	34.400% and 53.600% and 50.410%	28 ± 1 % QH	< 23.100% and 27.400% and 28.840%	–	46 ± 5 nM	72.2 nM and 83 nM and 78.7 nM and 50.7 nM and 44.6 nM and 41.5 nM	46 nM	0.09 ± 0.01 s⁻¹	1.98e+06 ± 130000 M⁻¹ s⁻¹	–	–	–
Cc1ncsc1-c1ccc([C@H](COC(C)CN2CCC(c3ccc4c(c3)n(C3CCCC3)c3nc(=O)c5c(Br)cccc5n43)CC2)NC(=O)[C@@H]2C[C@@H](O)CN2C(=O)[C@@H](NC(=O)C2(F)CC2)C(C)(C)C)cc1 (stereo partly drawn) [compound 9]	34 ± 6 nM	55 ± 1 % QH	54.100% and 55.600%	27 ± 3 % QH	24.700% and 28.800% and < 24.200%	<23 % QH	<23.100 <23.100 <23.100%	7.0 ± 2.6	263 ± 9 nM	260 nM and 273 nM and 257 nM	–	–	–	39.9 nM and 37.9 nM and 30.4 nM and 26.2 nM	–	–
Cc1ncsc1-c1ccc([C@H](COC(C)CN2CCC(c3ccc4c(c3)n(C3CCCC3)c3nc(=O)c5c(Br)cccc5n43)CC2)NC(=O)[C@@H]2C[C@@H](O)CN2C(=O)[C@@H](NC(=O)C2(N(C)C)CC2)C(C)(C)C)cc1 (stereo partly drawn) [compound 10]	124 ± 97 nM	86 % QH	85.500%	68 ± 2 % QH	66.900% and 69.700%	51 ± 2 % QH	49.700% and 52.900%	10.1 ± 3.8	222 ± 6 nM	228 nM and 218 nM and 219 nM	–	–	–	76.7 nM and 269 nM and 65.4 nM and 86 nM	–	–
Cc1ncsc1-c1ccc([C@H](CCCCCN2CCC(c3ccc4c(c3)n(C3CCCC3)c3nc(=O)c5c(Br)cccc5n43)CC2)NC(=O)[C@@H]2C[C@@H](O)CN2C(=O)[C@@H](NC(=O)C2(F)CC2)C(C)(C)C)cc1 [compound 11]	9 ± 3 nM	<24 % QH	<24.400 <24.400 <24.400 <24.400%	<24 % QH	<24.200 <24.200 <24.200 <24.200 <24.200 <24.200 <24.200 <24.200%	<23 % QH	<23.100 <23.100 <23.100 <23.100 <23.100 <23.100 <23.100 <23.100%	5.3 ± 2.1	–	148 nM and 144 nM and 140 nM	–	–	–	11.2 nM and 11.4 nM and 9.47 nM and 7.94 nM and 8.34 nM and 7.19 nM and 5.73 nM and 11.9 nM and 4.42 nM	good microsomal stability	–
Cc1ncsc1-c1ccc([C@H](CC[C@H](C)CCN2CCC(c3ccc4c(c3)n(C3CCCC3)c3nc(=O)c5c(Br)cccc5n43)CC2)NC(=O)[C@@H]2C[C@H](O)CN2C(=O)[C@@H](NC(=O)C2(F)CC2)C(C)(C)C)cc1 [compound 12]	629 ± 88 nM	<24 % QH	31.400%	<24 % QH	<24.200 NADPH control off limits %	<23 % QH	<23.100%	1.1 ± 0.3	214 ± 15 nM	202 nM and 231 nM and 209 nM	–	–	–	566 nM and 691 nM	–	60%
CN1CCN(c2nc(=O)c3c(Cl)cccc3o2)CC1 [compound 13]	–	–	–	–	–	–	–	–	24500 ± 2170 nM	26500 nM and 24900 nM and 22200 nM	–	–	–	–	–	–
CN1CCN(c2nc(=O)c3c(Br)cccc3o2)CC1 [compound 15]	–	–	–	–	–	–	–	–	9000 ± 526 nM	8910 nM and 9570 nM and 8530 nM	–	–	–	–	–	–
CN1CCN(c2nc(=O)c3c(I)cccc3o2)CC1 [compound 16]	–	–	–	–	–	–	–	–	17900 ± 917 nM	18100 nM and 16900 nM and 18700 nM	–	–	–	–	–	–
Cc1ncsc1-c1ccc(CNC(=O)[C@@H]2C[C@H](O)CN2C(=O)[C@@H](NC(=O)C2(F)CC2)C(C)(C)C)c(OCCN2CCC(c3ccc4c(c3)n(C3CCCC3)c3nc(=O)c5c(Br)cccc5n43)CC2)c1 [compound 19]	–	82 % QH	81.450%	68 % QH	67.500%	28 % QH	27.950%	1.2 ± 0.1	64 ± 4 nM	68.8 nM and 62.9 nM and 60.9 nM	–	–	–	–	–	–
Cc1ncsc1-c1ccc(CNC(=O)[C@@H]2C[C@@H](O)CN2C(=O)[C@@H](NC(=O)C2(F)CC2)C(C)(C)C)c(OCCN2CCC(c3ccc4c(c3)n(C3CCCC3)c3nc(=O)c5c(Br)cccc5n43)CC2)c1 [compound 20]	9 ± 7 nM	89 ± 7 % QH	92.780% and 92.740% and 91.810% and 92.050% and 77.420%	76 ± 2 % QH	73.270% and 75.530% and 75.780% and 78.330%	33 ± 3 % QH	34.870% and 29.970% and 29.780% and 36.100% and < 23.080%	0.6 ± 0.2	104 ± 6 nM	103 nM and 98.8 nM and 110 nM	–	–	–	6.64 nM and 20.3 nM and 5.1 nM and 5.19 nM	–	–

Reference: paper PMC9551036, “A selective and orally bioavailable VHL-recruiting PROTAC achieves SMARCA2 degradation in vivo” (Nature Communications, 2022)
